Reference: patent US10792289B2 (Horizon Orphan LLC, priority 2009, dated 2020)
Converted amounts (≈) assume the structure as drawn. Like-named read-outs stand apart in the source and are kept apart here.

Assays:
S. aureus = experiment: Phase 2 study: presumptive S. aureus density in sputum; assay type: in vivo, human
Description: The following dosage regimens (as nebulizer loaded doses) were evaluated: 120 mg QD (daily); 240 mg QD (daily); and 240 mg BID (twice daily).
Patients were assessed on Day 1, 7, 14, and 28, and then up to 28 days after completion of study drug, namely, Days 42 and 56. The end of the study was defined as the last visit of the last patient.

B. cepacia = experiment: Levofloxacin MIC against B. cepacia; assay type: cell-based; conditions: Burkholderia cepacia
[1] = EE population, Combined 240 mg QD and BID
[2] = EE population, Combined Levofloxacin
[3] = Table 21 (EE population), 120 mg QD
[4] = Table 21 (EE population), 240 mg BID
[5] = Table 21 (EE population), 240 mg QD
[6] = Table 21 (EE population), Combined 240 mg QD and BID
[7] = Table 21 (EE population), Combined Levofloxacin

C[C@H]1COc2c(N3CCN(C)CC3)c(F)cc3c(=O)c(C(=O)O)cn1c23 [Levofloxacin, levofloxacin]
presumptive S. aureus density, Change from Baseline to Day 7, Mean (S. aureus; EE population, 120 mg QD): −1.19 log10 CFU/g sputum | presumptive S. aureus density, Day 1, Mean (S. aureus; EE population, 120 mg QD): 5.72 log10 CFU/g sputum | presumptive S. aureus density, Day 7, Mean (S. aureus; EE population, 120 mg QD): 4.53 log10 CFU/g sputum | presumptive S. aureus density, Day 14, Mean (S. aureus; EE population, 120 mg QD): 5.30 log10 CFU/g sputum | presumptive S. aureus density, Day 28, Mean (S. aureus; EE population, 120 mg QD): 5.31 log10 CFU/g sputum | presumptive S. aureus density, Change from Baseline to Day 28, Mean (S. aureus; EE population, 120 mg QD, Day 14): −0.42 log10 CFU/g sputum | presumptive S. aureus density, Change from Baseline to Day 28, Mean (S. aureus; EE population, 120 mg QD, Day 28): −0.41 log10 CFU/g sputum | presumptive S. aureus density, Change from Baseline to Day 7, Mean (S. aureus; EE population, 240 mg BID): −0.72 log10 CFU/g sputum | presumptive S. aureus density, Day 1, Mean (S. aureus; EE population, 240 mg BID): 5.68 log10 CFU/g sputum | presumptive S. aureus density, Day 7, Mean (S. aureus; EE population, 240 mg BID): 4.96 log10 CFU/g sputum | presumptive S. aureus density, Day 14, Mean (S. aureus; EE population, 240 mg BID): 4.70 log10 CFU/g sputum | presumptive S. aureus density, Day 28, Mean (S. aureus; EE population, 240 mg BID): 5.42 log10 CFU/g sputum | presumptive S. aureus density, Change from Baseline to Day 28, Mean (S. aureus; EE population, 240 mg BID, Day 14): −0.98 log10 CFU/g sputum | presumptive S. aureus density, Change from Baseline to Day 28, Mean (S. aureus; EE population, 240 mg BID, Day 28): −0.38 log10 CFU/g sputum | presumptive S. aureus density, Change from Baseline to Day 7, Mean (S. aureus; EE population, 240 mg QD): −0.30 log10 CFU/g sputum | presumptive S. aureus density, Day 1, Mean (S. aureus; EE population, 240 mg QD): 5.64 log10 CFU/g sputum | presumptive S. aureus density, Day 7, Mean (S. aureus; EE population, 240 mg QD): 5.34 log10 CFU/g sputum | presumptive S. aureus density, Day 14, Mean (S. aureus; EE population, 240 mg QD): 5.14 log10 CFU/g sputum | presumptive S. aureus density, Day 28, Mean (S. aureus; EE population, 240 mg QD): 4.56 log10 CFU/g sputum | presumptive S. aureus density, Change from Baseline to Day 28, Mean (S. aureus; EE population, 240 mg QD, Day 14): −0.50 log10 CFU/g sputum | presumptive S. aureus density, Change from Baseline to Day 28, Mean (S. aureus; EE population, 240 mg QD, Day 28): −1.08 log10 CFU/g sputum | presumptive S. aureus density, Change from Baseline to Day 7, Mean (S. aureus; [1]): −0.47 log10 CFU/g sputum | presumptive S. aureus density, Day 1, Mean (S. aureus; [1]): 5.65 log10 CFU/g sputum | presumptive S. aureus density, Day 7, Mean (S. aureus; [1]): 5.18 log10 CFU/g sputum | presumptive S. aureus density, Day 14, Mean (S. aureus; [1]): 4.96 log10 CFU/g sputum | presumptive S. aureus density, Day 28, Mean (S. aureus; [1]): 4.89 log10 CFU/g sputum | presumptive S. aureus density, Change from Baseline to Day 28, Mean (S. aureus; EE population, Combined 240 mg QD and BID, Day 14): −0.69 log10 CFU/g sputum | presumptive S. aureus density, Change from Baseline to Day 28, Mean (S. aureus; EE population, Combined 240 mg QD and BID, Day 28): −0.81 log10 CFU/g sputum | presumptive S. aureus density, Change from Baseline to Day 7, Mean (S. aureus; [2]): −0.71 log10 CFU/g sputum | presumptive S. aureus density, Day 1, Mean (S. aureus; [2]): 5.68 log10 CFU/g sputum | presumptive S. aureus density, Day 7, Mean (S. aureus; [2]): 4.97 log10 CFU/g sputum | presumptive S. aureus density, Day 14, Mean (S. aureus; [2]): 5.08 log10 CFU/g sputum | presumptive S. aureus density, Day 28, Mean (S. aureus; [2]): 5.04 log10 CFU/g sputum | presumptive S. aureus density, Change from Baseline to Day 28, Mean (S. aureus; EE population, Combined Levofloxacin, Day 14): −0.60 log10 CFU/g sputum | presumptive S. aureus density, Change from Baseline to Day 28, Mean (S. aureus; EE population, Combined Levofloxacin, Day 28): −0.67 log10 CFU/g sputum | presumptive S. aureus density, Change from Baseline to Day 7, Mean (S. aureus; [3]): −1.14 log10 CFU/g sputum | presumptive S. aureus density, Day 1, Mean (S. aureus; [3]): 5.89 log10 CFU/g sputum | presumptive S. aureus density, Day 7, Mean (S. aureus; [3]): 4.75 log10 CFU/g sputum | presumptive S. aureus density, Day 14, Mean (S. aureus; [3]): 5.48 log10 CFU/g sputum | presumptive S. aureus density, Day 28, Mean (S. aureus; [3]): 5.49 log10 CFU/g sputum | presumptive S. aureus density, Change from Baseline to Day 28, Mean (S. aureus; Table 21 (EE population), 120 mg QD, Day 14): −0.41 log10 CFU/g sputum | presumptive S. aureus density, Change from Baseline to Day 28, Mean (S. aureus; Table 21 (EE population), 120 mg QD, Day 28): −0.41 log10 CFU/g sputum | presumptive S. aureus density, Change from Baseline to Day 7, Mean (S. aureus; [4]): −0.66 log10 CFU/g sputum | presumptive S. aureus density, Day 1, Mean (S. aureus; [4]): 5.51 log10 CFU/g sputum | presumptive S. aureus density, Day 7, Mean (S. aureus; [4]): 4.65 log10 CFU/g sputum | presumptive S. aureus density, Day 14, Mean (S. aureus; [4]): 4.32 log10 CFU/g sputum | presumptive S. aureus density, Day 28, Mean (S. aureus; [4]): 4.95 log10 CFU/g sputum | presumptive S. aureus density, Change from Baseline to Day 28, Mean (S. aureus; Table 21 (EE population), 240 mg BID, Day 14): −0.99 log10 CFU/g sputum | presumptive S. aureus density, Change from Baseline to Day 28, Mean (S. aureus; Table 21 (EE population), 240 mg BID, Day 28): −0.44 log10 CFU/g sputum | presumptive S. aureus density, Change from Baseline to Day 7, Mean (S. aureus; [5]): −0.40 log10 CFU/g sputum | presumptive S. aureus density, Day 1, Mean (S. aureus; [5]): 5.63 log10 CFU/g sputum | presumptive S. aureus density, Day 7, Mean (S. aureus; [5]): 5.23 log10 CFU/g sputum | presumptive S. aureus density, Day 14, Mean (S. aureus; [5]): 4.97 log10 CFU/g sputum | presumptive S. aureus density, Day 28, Mean (S. aureus; [5]): 4.48 log10 CFU/g sputum | presumptive S. aureus density, Change from Baseline to Day 28, Mean (S. aureus; Table 21 (EE population), 240 mg QD, Day 14): −0.66 log10 CFU/g sputum | presumptive S. aureus density, Change from Baseline to Day 28, Mean (S. aureus; Table 21 (EE population), 240 mg QD, Day 28): −1.15 log10 CFU/g sputum | presumptive S. aureus density, Change from Baseline to Day 7, Mean (S. aureus; [6]): −0.51 log10 CFU/g sputum | presumptive S. aureus density, Day 1, Mean (S. aureus; [6]): 5.58 log10 CFU/g sputum | presumptive S. aureus density, Day 7, Mean (S. aureus; [6]): 4.99 log10 CFU/g sputum | presumptive S. aureus density, Day 14, Mean (S. aureus; [6]): 4.70 log10 CFU/g sputum | presumptive S. aureus density, Day 28, Mean (S. aureus; [6]): 4.66 log10 CFU/g sputum | presumptive S. aureus density, Change from Baseline to Day 28, Mean (S. aureus; Table 21 (EE population), Combined 240 mg QD and BID, Day 14): −0.80 log10 CFU/g sputum | presumptive S. aureus density, Change from Baseline to Day 28, Mean (S. aureus; Table 21 (EE population), Combined 240 mg QD and BID, Day 28): −0.87 log10 CFU/g sputum | presumptive S. aureus density, Change from Baseline to Day 7, Mean (S. aureus; [7]): −0.71 log10 CFU/g sputum | presumptive S. aureus density, Day 1, Mean (S. aureus; [7]): 5.68 log10 CFU/g sputum | presumptive S. aureus density, Day 7, Mean (S. aureus; [7]): 4.91 log10 CFU/g sputum | presumptive S. aureus density, Day 14, Mean (S. aureus; [7]): 4.95 log10 CFU/g sputum | presumptive S. aureus density, Day 28, Mean (S. aureus; [7]): 4.93 log10 CFU/g sputum | presumptive S. aureus density, Change from Baseline to Day 28, Mean (S. aureus; Table 21 (EE population), Combined Levofloxacin, Day 14): −0.68 log10 CFU/g sputum | presumptive S. aureus density, Change from Baseline to Day 28, Mean (S. aureus; Table 21 (EE population), Combined Levofloxacin, Day 28): −0.72 log10 CFU/g sputum | MIC (B. cepacia): > 128 µg/mL | MIC (B. cepacia; five strains tested in mouse model, read-out: MICs of five B. cepacia strains): 0.25 to 8 µg/mL (≈ 0.692 to 22.1 µM) | MIC (B. cepacia; strain BC1012, read-out: MIC): 4 µg/mL (≈ 11.1 µM) | MIC (B. cepacia; strain BC1013, read-out: MIC): 0.25 µg/mL (≈ 0.692 µM) | MIC (B. cepacia; strain BC1014, read-out: MIC): 1 µg/mL (≈ 2.77 µM) | MIC (B. cepacia; strain BC1020, read-out: MIC): 8 µg/mL (≈ 22.1 µM) | MIC (B. cepacia; strain BC1021, read-out: MIC): 8 µg/mL (≈ 22.1 µM)
